The record followed here is patent US20190185417A1, “NOVEL ANTIBIOTICS” (priority 2016, published 2019).

Common to all, as to format: cell-based
The test system of assay [1] is Haemophilus influenzae (ATCC 49247). Description: MIC by broth microdilution. The following applies: Table 2, Example 2. Here is the method:
(§1) The antibacterial potency of the test article(s) was measured using the in vitro broth microdilution assay under assay conditions described by the Clinical and Laboratory Standards Institute. […] The test substance was dissolved in 100% DMSO (unless stated below), suspended completely by sonication or vortexing, diluted by 2-fold serial titrations in the same vehicle, for a total of 11 test concentrations. A 4 μL aliquot of each dilution was added to 196 μL of broth medium seeded with the organism suspension in wells of a 96 well plate (bacterial count: 2−8×10^5 colony forming units/mL final). The final volume was 200 μL in each well and the final DMSO concentration was 2 percent. Following incubation, the test plates were visually examined and wells were scored for growth or complete growth inhibition to define the minimum inhibitory concentration. Each test substance was evaluated in duplicate and the results below are the duplicate test values. Vehicle-control and an active reference agent were used as blank and positive controls, respectively.
In general terms: Broth dilution looks for growth in wells or tubes with falling amounts of substance.

Assay [2] deals with Pseudomonas aeruginosa, MDR (NTUH-974). In words: MIC by broth microdilution. The note with it: Table 2, Example 2. Here is the method:
as §1, with “DMSO,” for “DMSO (unless stated below),”, “incubation for 1 day at 36° C.,” for “incubation,”, “were reported as” for “below are”, “respectively. Microorganisms tested were Acinetobacter baumannii (ATCC 17978), Enterococcus faecalis (ATCC 29212), Enterococcus faecium VanA (ATCC 700221), Escherichia coli (ATCC 25922), Escherichia coli efflux defective DEL-tolC (JW5503), Heamophilus influenzae (ATCC 49247), Klebsiella pneumoniae (ATCC 43816), Pseudomonas aeruginosa (ATCC 27853), Pseudomonas aeruginosa MDR (NTUH-974), Staphylococcus aureus (ATCC 29213), Staphylococcus aureus MRSA (ATCC 33591) and Streptococcous pneumoniae (ATCC 46919). H. influenzae was grown in Haemophilus Test Medium and S. pneumoniae was grown in cation adjusted Muller-Hinton Broth II with 5% lysed horse blood. All other microorganisms were grown in cation adjusted Muller-Hinton Broth II.” for “respectively.”
as §1

The test system of assay [3] is Pseudomonas aeruginosa (ATCC 27853). Description: MIC by broth microdilution. The note with it: Table 2, Example 2. The method, then: as §1, with “DMSO,” for “DMSO (unless stated below),”, “incubation for 1 day at 36° C.,” for “incubation,”, “were reported as” for “below are”, “respectively. Microorganisms tested were Acinetobacter baumannii (ATCC 17978), Enterococcus faecalis (ATCC 29212), Enterococcus faecium VanA (ATCC 700221), Escherichia coli (ATCC 25922), Escherichia coli efflux defective DEL-tolC (JW5503), Heamophilus influenzae (ATCC 49247), Klebsiella pneumoniae (ATCC 43816), Pseudomonas aeruginosa (ATCC 27853), Pseudomonas aeruginosa MDR (NTUH-974), Staphylococcus aureus (ATCC 29213), Staphylococcus aureus MRSA (ATCC 33591) and Streptococcous pneumoniae (ATCC 46919). H. influenzae was grown in Haemophilus Test Medium and S. pneumoniae was grown in cation adjusted Muller-Hinton Broth II with 5% lysed horse blood. All other microorganisms were grown in cation adjusted Muller-Hinton Broth II.” for “respectively.”
as §1

In assay [4] the test system is Klebsiella pneumoniae (ATCC 43816). Description: MIC by broth microdilution. The note with it: Table 2, Example 2. The method, then: as §1, with “DMSO,” for “DMSO (unless stated below),”, “incubation for 1 day at 36° C.,” for “incubation,”, “were reported as” for “below are”, “respectively. Microorganisms tested were Acinetobacter baumannii (ATCC 17978), Enterococcus faecalis (ATCC 29212), Enterococcus faecium VanA (ATCC 700221), Escherichia coli (ATCC 25922), Escherichia coli efflux defective DEL-tolC (JW5503), Heamophilus influenzae (ATCC 49247), Klebsiella pneumoniae (ATCC 43816), Pseudomonas aeruginosa (ATCC 27853), Pseudomonas aeruginosa MDR (NTUH-974), Staphylococcus aureus (ATCC 29213), Staphylococcus aureus MRSA (ATCC 33591) and Streptococcous pneumoniae (ATCC 46919). H. influenzae was grown in Haemophilus Test Medium and S. pneumoniae was grown in cation adjusted Muller-Hinton Broth II with 5% lysed horse blood. All other microorganisms were grown in cation adjusted Muller-Hinton Broth II.” for “respectively.”
as §1

Assay [5] has as its system Escherichia coli (ATCC 25922). In words: MIC by broth microdilution. The note with it: Table 2, Example 2. The method, then: as §1, with “DMSO,” for “DMSO (unless stated below),”, “incubation for 1 day at 36° C.,” for “incubation,”, “were reported as” for “below are”, “respectively. Microorganisms tested were Acinetobacter baumannii (ATCC 17978), Enterococcus faecalis (ATCC 29212), Enterococcus faecium VanA (ATCC 700221), Escherichia coli (ATCC 25922), Escherichia coli efflux defective DEL-tolC (JW5503), Heamophilus influenzae (ATCC 49247), Klebsiella pneumoniae (ATCC 43816), Pseudomonas aeruginosa (ATCC 27853), Pseudomonas aeruginosa MDR (NTUH-974), Staphylococcus aureus (ATCC 29213), Staphylococcus aureus MRSA (ATCC 33591) and Streptococcous pneumoniae (ATCC 46919). H. influenzae was grown in Haemophilus Test Medium and S. pneumoniae was grown in cation adjusted Muller-Hinton Broth II with 5% lysed horse blood. All other microorganisms were grown in cation adjusted Muller-Hinton Broth II.” for “respectively.”
as §1

In assay [6] the test system is Acinetobacter baumannii (ATCC 17978). In words: MIC by broth microdilution. The note with it: Table 2, Example 2. The method, then:
as §1, with “DMSO,” for “DMSO (unless stated below),”, “incubation for 1 day at 36° C.,” for “incubation,”, “were reported as” for “below are”, “respectively. Microorganisms tested were Acinetobacter baumannii (ATCC 17978), Enterococcus faecalis (ATCC 29212), Enterococcus faecium VanA (ATCC 700221), Escherichia coli (ATCC 25922), Escherichia coli efflux defective DEL-tolC (JW5503), Heamophilus influenzae (ATCC 49247), Klebsiella pneumoniae (ATCC 43816), Pseudomonas aeruginosa (ATCC 27853), Pseudomonas aeruginosa MDR (NTUH-974), Staphylococcus aureus (ATCC 29213), Staphylococcus aureus MRSA (ATCC 33591) and Streptococcous pneumoniae (ATCC 46919). H. influenzae was grown in Haemophilus Test Medium and S. pneumoniae was grown in cation adjusted Muller-Hinton Broth II with 5% lysed horse blood. All other microorganisms were grown in cation adjusted Muller-Hinton Broth II.” for “respectively.”
as §1

For assay [7], the system named is Escherichia coli, efflux defective DEL-tolC (JW5503). In words: MIC by broth microdilution. The following applies: Table 2, Example 2. Here is the method: as §1, with “DMSO,” for “DMSO (unless stated below),”, “incubation for 1 day at 36° C.,” for “incubation,”, “were reported as” for “below are”, “respectively. Microorganisms tested were Acinetobacter baumannii (ATCC 17978), Enterococcus faecalis (ATCC 29212), Enterococcus faecium VanA (ATCC 700221), Escherichia coli (ATCC 25922), Escherichia coli efflux defective DEL-tolC (JW5503), Heamophilus influenzae (ATCC 49247), Klebsiella pneumoniae (ATCC 43816), Pseudomonas aeruginosa (ATCC 27853), Pseudomonas aeruginosa MDR (NTUH-974), Staphylococcus aureus (ATCC 29213), Staphylococcus aureus MRSA (ATCC 33591) and Streptococcous pneumoniae (ATCC 46919). H. influenzae was grown in Haemophilus Test Medium and S. pneumoniae was grown in cation adjusted Muller-Hinton Broth II with 5% lysed horse blood. All other microorganisms were grown in cation adjusted Muller-Hinton Broth II.” for “respectively.”
as §1

A further assay relates to Gram-negative bacteria. In words: MIC by broth microdilution, overall statement in words. The note with it: Example 2, statement in words. The method, then: as §1, with “DMSO,” for “DMSO (unless stated below),”, “incubation for 1 day at 36° C.,” for “incubation,”, “were reported as” for “below are”, “respectively. Microorganisms tested were Acinetobacter baumannii (ATCC 17978), Enterococcus faecalis (ATCC 29212), Enterococcus faecium VanA (ATCC 700221), Escherichia coli (ATCC 25922), Escherichia coli efflux defective DEL-tolC (JW5503), Heamophilus influenzae (ATCC 49247), Klebsiella pneumoniae (ATCC 43816), Pseudomonas aeruginosa (ATCC 27853), Pseudomonas aeruginosa MDR (NTUH-974), Staphylococcus aureus (ATCC 29213), Staphylococcus aureus MRSA (ATCC 33591) and Streptococcous pneumoniae (ATCC 46919). H. influenzae was grown in Haemophilus Test Medium and S. pneumoniae was grown in cation adjusted Muller-Hinton Broth II with 5% lysed horse blood. All other microorganisms were grown in cation adjusted Muller-Hinton Broth II.” for “respectively.”
as §1

Consider `CC(=O)ONc1ccc(CCc2cc(CCc3ccc(NOC(C)=O)cc3)cc(CCc3ccc(NOC(C)=O)cc3)c2)cc1` [Compound 9 (TSB016)], for which the MIC in assay [1], in assay [2], in assay [3], in assay [4], in assay [5] and in assay [6] was above 32.0 µg/mL throughout. This compound returned an MIC in assay [7] above 32.0 µg/mL.

Take `CN(C)c1ccc(/C=C/c2cc(/C=C/c3ccc(N(C)C)cc3)cc(/C=C/c3ccc(N(C)C)cc3)c2)cc1` [Compound 10]: the MIC in assay [1], in assay [2], in assay [3], in assay [4], in assay [5] and in assay [6] was above 128 µg/mL throughout. For the same compound, the MIC in assay [7] was above 128 µg/mL.

In the case of `CN(C)c1ccc(CCc2cc(CCc3ccc(N(C)C)cc3)cc(CCc3ccc(N(C)C)cc3)c2)cc1` [Compound 11 (TSB010)], the MIC in assay [1], in assay [2], in assay [3], in assay [4], in assay [5] and in assay [6] was above 32.0 µg/mL each time. The compound also gave an MIC in assay [7] above 32.0 µg/mL.

On to `CN(C)Cc1ccc(/C=C/c2cc(/C=C/c3ccc(CC(N)=O)cc3)cc(/C=C/c3ccc(CC(=O)O)cc3)c2)cc1` [Compound 14], for which the MIC in assay [1], in assay [2], in assay [3], in assay [4], in assay [5] and in assay [6] was above 128 µg/mL each time. In assay [7], the MIC was above 128 µg/mL. In addition, the “effectiveness against the bacteria of Table 2” value (“effectiveness” below) in the assay with Gram-negative bacteria was “ineffective”.

Turning to `CN(C)Cc1ccc(/C=C/c2cc(/C=C/c3ccc(CC(N)=O)cc3)cc(/C=C/c3ccc(CC(N)=O)cc3)c2)cc1` [Compound 15], the MIC in assay [1], in assay [2], in assay [3], in assay [4], in assay [5] and in assay [6] was above 128 µg/mL each time. This compound registered an MIC in assay [7] above 128 µg/mL. In the assay with Gram-negative bacteria, the “effectiveness” value was “ineffective”.

Consider `CN(C)Cc1ccc(/C=C/c2cc(/C=C/c3ccc(CC(=O)O)cc3)cc(/C=C/c3ccc(CC(=O)O)cc3)c2)cc1` [Compound 16], for which the MIC in assay [1], in assay [2], in assay [3], in assay [4], in assay [5] and in assay [6] was above 128 µg/mL in each case. This compound also returned an MIC in assay [7] above 128 µg/mL. Moreover, the “effectiveness” value in the assay with Gram-negative bacteria is “ineffective”.

For `NC(=O)Cc1ccc(/C=C/c2cc(/C=C/c3ccc(CC(N)=O)cc3)cc(/C=C/c3ccc(CC(N)=O)cc3)c2)cc1` [Compound 17], the MIC in assay [1], in assay [2], in assay [3], in assay [4], in assay [5] and in assay [6] was above 128 µg/mL throughout. The compound further yielded an MIC in assay [7] above 128 µg/mL.
